According to paper PMC2263054, “Functional evolution of the vitamin D and pregnane X receptors” (BMC Evolutionary Biology, 2007):

Columns and labels:
[1] = target: T1, Sea lamprey VDR (Petromyzon marinus, UniProt Q7ZZY9); assay type: cell-based; conditions: HepG2-NTCP cells, luciferase reporter; unit not given; also cells saying No effect
T1 sequence (Q7ZZY9 92-406): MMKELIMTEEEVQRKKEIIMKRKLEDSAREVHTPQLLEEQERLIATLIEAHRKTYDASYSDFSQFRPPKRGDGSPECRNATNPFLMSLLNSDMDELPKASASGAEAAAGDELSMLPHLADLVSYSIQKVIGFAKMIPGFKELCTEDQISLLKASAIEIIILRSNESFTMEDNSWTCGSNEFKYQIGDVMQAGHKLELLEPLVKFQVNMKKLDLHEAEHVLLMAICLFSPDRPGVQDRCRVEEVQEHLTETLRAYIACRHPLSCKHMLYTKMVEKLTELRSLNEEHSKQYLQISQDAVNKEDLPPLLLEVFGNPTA

[2] = system: MDR1 (tentatively classified as ABCB5 in zebrafish); experiment: zebrafish in vivo liver transcription, semi-quantitative RT-PCR: MDR1
Description: Adult zebrafish were purchased from a commercial fish supplier and acclimatized for at least two-weeks in 20 L tanks with flow-through freshwater at 22°C. A single dose of 15 mg/kg of 5α-cyprinol, 5β-cyprinol 27-sulfate, 5α-scymnol or 5β-scymnol-27 sulfate, dissolved in saline, was injected intraperitoneally. A control group was injected with saline. After 48 hr, the animals were decapitated and livers of three fish (n = 5 each group) were removed, pooled and weighed, totalizing 15 fish per group. Fish were not fed throughout the experimental period. […].
(§1) To study the transcription of CYP3C1, ABCB5, PXR, GAPDH and β-actin genes in zebrafish, initial fragments of these genes were identified (Genbank: AW202769, Genbank: BQ284593, Genbank: AAM22215, Genbank: BC083506, Genbank: AF057040, respectively). The PCR primers for CYP3C1 were designed using MacVector Software and primers for MDR1 were designed using Primer 3 Software (Whitehead Institute for Biomedical Research; [75]). Primer pairs for amplifying CYP3C1 fragment were 5'-[…]-3' (sense) and 5'-[…]-3' (antisense) and for amplifying ABCB5 were 5'-[…]-3' (sense) and 5'-[…]-3' (antisense). The PCR primers for PXR were 5'-[…]-3' (sense) and 5'-[…]-3' (antisense), for amplifying GAPDH were 5'-[…]-3' (sense) and 5' […] 3' (antisense) and for β-actin were 5'-[…]-3' (sense) and 5'-[…]-3' (antisense). RNA was isolated using Trizol (Invitrogen) according to manufacturer's instructions. Purity and concentration of RNA of each sample were verified at 260 nm. The RNA integrity was checked by non-denaturing gel electrophoresis using 1 μg of total RNA in each sample.
Two micrograms of total RNA were reversed transcribed using Ominiscript RT Kit (Qiagen, Valencia, CA, USA). cDNA concentration was checked at 260 nm, and the amount adjusted to 1 μg to perform semi-quantitative RT-PCR. The expected size of the PXR, Cyp3C1, abcb5, GAPDH and β-actin fragments were 577, 477, 218, 234 and 550 bp, respectively. Biotools DNA polymerase (Biotools B&M Labs, S.A., Madrid, Spain) kit was used for the PCR reaction using a thermocycler Personal Mastercycler (Eppendörf) with the following PCR program: 5 cycles of 94°C for 5 s, 72°C for 35 s; 5 cycles of 94°C for 5 s, 70°C for 10 s, 72°C for 35 s; and 23, 24, 35, 15 and 24 cycles (PXR, Cyp3C1, abcb5, GAPDH and β-actin, respectively) of 94°C for 5 s, 61, 54, 48, 49 and 61°C for 10 s (PXR, Cyp3C1, abcb5, GAPDH and β-actin, respectively), and 72°C for 35 s. The PXR, CYP3C1, ABCB5 and GAPDH transcript levels were quantified using Gel-Quant™ (Multiplexed Biotechologies) and β-actin was used to normalize the data. The Shapiro-Wilk W test was used to evaluate normality. When data were parametric the analysis was performed using Student t test; otherwise Mann Whitney U test was applied. […]

[3] = system: Ciona VDR/PXR; conditions: HepG2-NTCP cells, luciferase reporter; unit not given; also cells saying No effect
[4] = target: T2, Human VDR (Homo sapiens, UniProt P11473); experiment: luciferase reporter transactivation assay in HepG2-NTCP cells, full-length hVDR with CYP3A4-PXRE-Luc; conditions: HepG2-NTCP cells, luciferase reporter; unit not given; also cells saying No effect
T2 sequence (P11473 1-427): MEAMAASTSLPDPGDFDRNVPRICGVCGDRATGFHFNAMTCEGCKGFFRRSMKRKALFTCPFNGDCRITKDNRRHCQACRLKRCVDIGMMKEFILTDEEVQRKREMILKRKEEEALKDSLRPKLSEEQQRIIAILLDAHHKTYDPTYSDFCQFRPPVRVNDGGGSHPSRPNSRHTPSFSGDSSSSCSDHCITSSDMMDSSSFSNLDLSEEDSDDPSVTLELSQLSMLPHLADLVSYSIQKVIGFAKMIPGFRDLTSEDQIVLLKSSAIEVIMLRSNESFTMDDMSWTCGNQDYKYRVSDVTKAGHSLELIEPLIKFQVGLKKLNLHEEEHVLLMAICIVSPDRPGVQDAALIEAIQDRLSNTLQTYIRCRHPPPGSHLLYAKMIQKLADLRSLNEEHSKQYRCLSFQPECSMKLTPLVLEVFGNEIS

[5] = system: glyceraldehyde 3-phosphate dehydrogenase (GAPDH); experiment: zebrafish in vivo liver transcription, semi-quantitative RT-PCR: GAPDH; conditions: 15 mg/kg intraperitoneally, single dose, 48 hr
Description: Adult zebrafish were purchased from a commercial fish supplier and acclimatized for at least two-weeks in 20 L tanks with flow-through freshwater at 22°C. A single dose of 15 mg/kg of 5α-cyprinol, 5β-cyprinol 27-sulfate, 5α-scymnol or 5β-scymnol-27 sulfate, dissolved in saline, was injected intraperitoneally. A control group was injected with saline. After 48 hr, the animals were decapitated and livers of three fish (n = 5 each group) were removed, pooled and weighed, totalizing 15 fish per group. Fish were not fed throughout the experimental period.
as §1, with “The PCR primers for CYP3C1 were designed using MacVector Software and primers for MDR1 were designed using Primer 3 Software (Whitehead Institute for Biomedical Research; [75]).” left out, “Purity and concentration of RNA of each sample were verified at 260 nm.” left out
The PXR, CYP3C1, ABCB5 and GAPDH transcript levels were quantified using Gel-Quant™ (Multiplexed Biotechologies) and β-actin was used to normalize the data. The Shapiro-Wilk W test was used to evaluate normality. When data were parametric the analysis was performed using Student t test; otherwise Mann Whitney U test was applied.

Row | SMILES | Sea lamprey VDR EC50 ± SD [1] | liver transcription of MDR1 (ABCB5) ([2]; ip, 15 mg/kg, 48 h) | Ciona VDR/PXR EC50 ± SD [3] | Human VDR EC50 ± SD [4] | liver transcription of GAPDH [5] | liver transcription of MDR1 (ABCB5) ([2]; zebrafish, 15 mg/kg intraperitoneally, single dose, 48 hr)
1 | C[C@H](CCCC(CO)CO)[C@H]1CC[C@H]2[C@@H]3[C@H](O)C[C@H]4C[C@H](O)CC[C@]4(C)[C@H]3C[C@H](O)[C@]12C [5α-Cyprinol, 5α-cholestan-3α,7α,12α,26,27-pentol] | No effect | 2.00 ± 1.00 arbitrary units normalized to β-actin | No effect | No effect | 1.50 ± 0.88 arbitrary units normalized to β-actin | 
2 | C[C@H](CCCC(CO)COS(=O)(=O)O)[C@H]1CC[C@H]2[C@@H]3[C@H](O)C[C@H]4C[C@H](O)CC[C@]4(C)[C@H]3C[C@H](O)[C@]12C (stereo partly drawn) [5α-Cyprinol 27-sulfate] | No effect |  | No effect | No effect | 2.38 ± 0.79 arbitrary units normalized to β-actin | 2.29 ± 0.75 arbitrary units normalized to β-actin
